Results on one compound are retold here after article PMC2729922, “Pharmacological Targeting of Native CatSper Channels Reveals a Required Role in Maintenance of Sperm Hyperactivation” (PLoS ONE, 2009).

For this test, the target named is T1, CatSper channel (CatSper1) (Mus musculus, UniProt A2ARP9+Q80W99+Q8BVN3+Q91ZR5).
T1 construct: native channel in mouse sperm; with CatSper2, CatSper3, CatSper4
Nature of the test: whole-sperm patch clamp of native CatSper currents; also SBFI and fura-2 photometry (abstract IC50 […] by optical assay). The class given is cell-based. Background: The patch-clamp technique gives a direct electrical read-out from membranes.

T1 sequence (Q91ZR5 whole entry): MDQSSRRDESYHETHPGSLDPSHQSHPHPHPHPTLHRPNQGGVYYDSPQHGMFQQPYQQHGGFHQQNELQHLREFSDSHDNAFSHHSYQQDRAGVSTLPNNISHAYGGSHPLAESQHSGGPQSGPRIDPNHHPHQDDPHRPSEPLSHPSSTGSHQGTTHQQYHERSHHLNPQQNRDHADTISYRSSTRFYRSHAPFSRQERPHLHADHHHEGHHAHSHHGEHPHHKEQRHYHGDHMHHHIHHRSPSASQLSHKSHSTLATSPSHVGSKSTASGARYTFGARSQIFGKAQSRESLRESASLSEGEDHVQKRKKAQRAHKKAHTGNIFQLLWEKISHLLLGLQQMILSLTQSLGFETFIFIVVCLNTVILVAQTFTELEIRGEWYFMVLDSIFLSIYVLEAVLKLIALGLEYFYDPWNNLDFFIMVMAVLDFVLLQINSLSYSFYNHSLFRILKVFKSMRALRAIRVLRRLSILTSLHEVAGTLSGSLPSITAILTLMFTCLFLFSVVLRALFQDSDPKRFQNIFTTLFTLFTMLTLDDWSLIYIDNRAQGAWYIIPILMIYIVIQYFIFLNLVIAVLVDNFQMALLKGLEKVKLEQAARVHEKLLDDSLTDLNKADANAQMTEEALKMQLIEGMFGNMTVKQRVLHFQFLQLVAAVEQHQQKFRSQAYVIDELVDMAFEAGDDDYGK
T1 sequence (A2ARP9 whole entry): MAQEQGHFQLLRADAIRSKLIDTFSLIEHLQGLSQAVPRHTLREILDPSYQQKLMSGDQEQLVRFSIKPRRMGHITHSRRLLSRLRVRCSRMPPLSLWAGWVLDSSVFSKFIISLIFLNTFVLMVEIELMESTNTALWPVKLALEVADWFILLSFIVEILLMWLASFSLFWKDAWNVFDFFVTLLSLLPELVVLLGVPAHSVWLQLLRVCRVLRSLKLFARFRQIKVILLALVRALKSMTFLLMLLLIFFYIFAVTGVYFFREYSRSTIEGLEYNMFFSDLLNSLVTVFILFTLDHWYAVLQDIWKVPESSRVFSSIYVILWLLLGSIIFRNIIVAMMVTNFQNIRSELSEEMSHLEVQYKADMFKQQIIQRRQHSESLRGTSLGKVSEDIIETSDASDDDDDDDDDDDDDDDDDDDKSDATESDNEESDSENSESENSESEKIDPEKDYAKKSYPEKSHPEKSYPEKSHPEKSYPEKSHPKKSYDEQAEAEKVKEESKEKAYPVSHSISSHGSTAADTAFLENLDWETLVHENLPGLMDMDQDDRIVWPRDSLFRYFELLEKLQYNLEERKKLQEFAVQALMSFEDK
T1 sequence (Q80W99 whole entry): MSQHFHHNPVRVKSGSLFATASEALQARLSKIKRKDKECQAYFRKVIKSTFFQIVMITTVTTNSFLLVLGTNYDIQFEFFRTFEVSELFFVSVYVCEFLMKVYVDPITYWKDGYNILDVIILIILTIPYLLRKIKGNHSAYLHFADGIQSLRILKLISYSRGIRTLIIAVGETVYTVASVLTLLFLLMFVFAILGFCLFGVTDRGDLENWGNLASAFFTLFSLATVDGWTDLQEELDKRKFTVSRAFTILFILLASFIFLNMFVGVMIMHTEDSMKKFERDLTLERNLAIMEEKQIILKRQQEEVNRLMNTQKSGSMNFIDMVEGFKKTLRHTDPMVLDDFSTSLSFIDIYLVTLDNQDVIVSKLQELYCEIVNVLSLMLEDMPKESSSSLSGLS
T1 sequence (Q8BVN3 whole entry): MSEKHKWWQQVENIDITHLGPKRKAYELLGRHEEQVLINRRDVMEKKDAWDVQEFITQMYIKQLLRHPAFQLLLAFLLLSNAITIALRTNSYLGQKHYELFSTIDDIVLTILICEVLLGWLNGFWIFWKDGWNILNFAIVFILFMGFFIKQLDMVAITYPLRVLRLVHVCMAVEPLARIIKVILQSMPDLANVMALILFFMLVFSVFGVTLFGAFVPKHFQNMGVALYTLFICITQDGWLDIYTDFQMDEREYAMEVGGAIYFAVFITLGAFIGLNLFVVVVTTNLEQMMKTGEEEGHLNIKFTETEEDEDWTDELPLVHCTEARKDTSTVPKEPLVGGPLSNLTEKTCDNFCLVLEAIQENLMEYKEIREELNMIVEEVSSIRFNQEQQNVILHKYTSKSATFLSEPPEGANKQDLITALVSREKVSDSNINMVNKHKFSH

The term IC50 denotes the midpoint of a concentration-inhibition curve. Consider `O=C(c1cccs1)c1no[n+]([O-])c1C(=O)c1cccs1` [HC-056456, 3,4-bis(2-thienylcarbonyl)-1,2,5-oxadiazole-2-ium-2-olate], for which the IC50 is ~15 µM.
